Measurements published in the NIST ThermoML archive (doi:10.1021/je0497496).
Values joined by “and” are separate entries in the source; they are usually repeats but may differ in a detail not shown here. Identical values can stand only once.

Conditions: for mass density: buoyancy; for vapor or sublimation pressure: Closed cell (Static) method

O=C=O [carbon dioxide]
Fluid (supercritical or subcritical phases)
Conditions | mass density
233.06 K, 500.05 kPa | 12.0703 kg/m3
233.06 K, 799.98 kPa | 20.1488 kg/m3
233.07 K, 105.91 kPa | 2.43371 kg/m3 and 2.42701 kg/m3
233.07 K, 300.07 kPa | 7.05798 kg/m3
243 K, 1000.7 kPa | 24.4253 kg/m3
243.01 K, 300.03 kPa | 6.73594 kg/m3
243.01 K, 500.04 kPa | 11.476 kg/m3
243.01 K, 800 kPa | 19.0248 kg/m3
243.01 K, 1200.7 kPa | 30.1422 kg/m3
243.02 K, 100.02 kPa | 2.20055 kg/m3
253.21 K, 500.06 kPa | 10.9367 kg/m3
253.21 K, 1500.7 kPa | 36.7146 kg/m3
253.22 K, 100.07 kPa | 2.116 kg/m3
253.22 K, 100.08 kPa | 2.11111 kg/m3
253.22 K, 1000.1 kPa | 23.0281 kg/m3
253.22 K, 1800.9 kPa | 45.9785 kg/m3
263.31 K, 1000.6 kPa | 21.8592 kg/m3
263.32 K, 500.07 kPa | 10.4541 kg/m3
263.32 K, 1500.1 kPa | 34.4562 kg/m3
263.32 K, 2000.2 kPa | 48.7144 kg/m3
263.32 K, 2200.2 kPa | 55.0401 kg/m3
263.32 K, 2500 kPa | 65.4007 kg/m3
263.33 K, 100.03 kPa | 2.02538 kg/m3
273.56 K, 100.01 kPa | 1.94808 kg/m3
273.56 K, 100.02 kPa | 1.95635 kg/m3
273.56 K, 500.01 kPa | 10.0139 kg/m3
273.56 K, 1000 kPa | 20.7952 kg/m3
273.56 K, 2000.3 kPa | 45.5031 kg/m3
273.56 K, 2500.6 kPa | 60.111 kg/m3
273.56 K, 3000 kPa | 77.0441 kg/m3
273.56 K, 3200.5 kPa | 84.7746 kg/m3
273.56 K, 3401.2 kPa | 93.2811 kg/m3
283.51 K, 3000.3 kPa | 70.8325 kg/m3
283.51 K, 4000.8 kPa | 107.963 kg/m3
283.52 K, 100.06 kPa | 1.8788 kg/m3
283.52 K, 999.98 kPa | 19.8874 kg/m3
283.52 K, 2000 kPa | 42.914 kg/m3
283.52 K, 4200.9 kPa | 117.472 kg/m3
293.08 K, 100.15 kPa | 1.81243 kg/m3
293.08 K, 100.16 kPa | 1.8183 kg/m3
293.08 K, 2000 kPa | 40.7832 kg/m3
293.08 K, 3000.4 kPa | 66.2045 kg/m3
293.08 K, 4000.2 kPa | 97.5691 kg/m3
293.08 K, 5000.2 kPa | 140.798 kg/m3
293.08 K, 5501.3 kPa | 173.325 kg/m3
293.09 K, 1000.2 kPa | 19.1053 kg/m3

Liquid
Conditions | mass density | vapor or sublimation pressure
233.07 K | 1116.54 kg/m3 and 1116.44 kg/m3 | 1000.7 kPa and 1000.8 kPa
243.01 K | 1076.52 kg/m3 | 1420.4 kPa and 1420.5 kPa
253.22 K | 1031.59 kg/m3 and 1031.49 kg/m3 | 1974.2 kPa and 1974.5 kPa
263.31 K | 981.93 kg/m3 | 2661.6 kPa
263.32 K | 981.93 kg/m3 | 2661.9 kPa
273.55 K | 924.89 kg/m3 | 3522.1 kPa
273.56 K | 924.87 kg/m3 | 3522.4 kPa
283.51 K | 858.57 kg/m3 | 4543.2 kPa
283.52 K | 858.55 kg/m3 | 4543.6 kPa
293.08 K | 774.28 kg/m3 | 5720.9 kPa
293.09 K | 774.23 kg/m3 | 5721.4 kPa
